# Experimental data published in patent publication US20240317735A1, “HYDROISOQUINOLINE OR HYDRONAPHTHYRIDINE COMPOUNDS FOR THE TREATMENT OF AUTOIMMUNE DISEASE” (Hoffmann-La Roche Inc., priority 2020, published 2024).
# Assays:
# [1] = Human microsome stability assay; format: in vitro ADME; settings: 1 μM test compound, 0.5 mg/mL liver microsomal protein, 37° C., pH 7.4
# In short: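 1 μM compound with 0.5 mg/mL human liver microsomes in 100 mM potassium phosphate pH 7.4, 37° C, started with NADPH-regenerating system after 10 min preincubation. Sampled at 0, 3, 6, 9, 15, 30 min, quenched in acetonitrile; parent remaining by LC-MS/MS, with no-NADPH controls.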
# human TLR8 = biological target: T1, human TLR8 (Homo sapiens, UniProt Q9NR97); test: HEK293-Blue-hTLR-8 cells assay (SEAP reporter, R848 stimulation); format: cell-based; settings: HEK293-Blue-hTLR8 cells, R848, 20 hrs; read-out: HEK/hTLR8 IC50
# T1 construct: host or cells: HEK293 (HEK-Blue hTLR8)
# T1 sequence (Q9NR97 27-1041): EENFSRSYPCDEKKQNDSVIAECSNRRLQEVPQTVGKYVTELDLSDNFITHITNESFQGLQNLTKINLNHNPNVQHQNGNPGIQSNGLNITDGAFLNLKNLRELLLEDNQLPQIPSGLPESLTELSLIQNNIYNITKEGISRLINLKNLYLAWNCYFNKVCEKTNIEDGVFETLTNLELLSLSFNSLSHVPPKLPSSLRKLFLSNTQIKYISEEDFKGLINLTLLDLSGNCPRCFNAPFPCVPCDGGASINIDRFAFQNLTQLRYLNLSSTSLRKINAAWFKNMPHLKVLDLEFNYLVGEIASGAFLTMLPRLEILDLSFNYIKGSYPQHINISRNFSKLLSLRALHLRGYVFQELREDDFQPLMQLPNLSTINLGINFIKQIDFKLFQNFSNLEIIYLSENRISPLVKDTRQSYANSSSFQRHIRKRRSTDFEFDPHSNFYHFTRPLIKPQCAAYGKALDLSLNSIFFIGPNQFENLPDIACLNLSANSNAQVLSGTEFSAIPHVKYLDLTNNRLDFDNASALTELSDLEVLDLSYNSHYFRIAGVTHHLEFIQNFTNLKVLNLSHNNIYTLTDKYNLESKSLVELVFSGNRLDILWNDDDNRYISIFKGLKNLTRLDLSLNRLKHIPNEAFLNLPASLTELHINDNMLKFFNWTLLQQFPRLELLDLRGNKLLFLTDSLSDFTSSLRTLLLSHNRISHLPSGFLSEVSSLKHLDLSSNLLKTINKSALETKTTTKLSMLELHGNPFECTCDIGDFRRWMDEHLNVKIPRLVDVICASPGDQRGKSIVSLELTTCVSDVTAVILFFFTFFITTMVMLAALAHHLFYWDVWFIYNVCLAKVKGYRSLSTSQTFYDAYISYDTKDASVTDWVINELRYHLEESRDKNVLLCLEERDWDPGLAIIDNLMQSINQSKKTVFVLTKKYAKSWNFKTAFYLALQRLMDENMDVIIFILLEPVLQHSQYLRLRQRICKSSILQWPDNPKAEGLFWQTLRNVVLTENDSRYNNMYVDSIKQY
# In short: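 HEK293-Blue hTLR8 cells with NF-κB/AP-1-driven SEAP reporter incubated 20 h at 37 °C with serially diluted compound (1% DMSO) and R848 stimulus (60 μM stock). Supernatant SEAP measured with QUANTI-Blue (2 h, 37 °C) by absorbance at 620–655 nm; antagonism read as reduced reporter signal.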
Compound,Clearance of Human microsome [1] [mL/min/kg],IC50 (human TLR8) [nM]
"C[C@H]1CN(c2ccnc3c2cnn3C)Cc2ccc(N3CC4(CNC4)CC3=O)cc21 [Example 34, 6-[(4R)-4-methyl-2-(1-methylpyrazolo[3,4-b]pyridin-4-yl)-3,4-dihydro-1H-isoquinolin-6-yl]-2,6-diazaspiro[3.4]octan-7-one]",10.1,26
"Cc1cc(N2Cc3cnc(O[C@@H]4C[C@H]5CNCCN5C4)cc3[C@@H](C)C2)c2cnn(C)c2n1 [Example 76, (4R)-2-(1,6-dimethylpyrazolo[3,4-b]pyridin-4-yl)-4-methyl-6-[[(7R,8aS)-1,2,3,4,6,7,8,8a-octahydropyrrolo[1,2-a]pyrazin-7-yl]oxy]-3,4-dihydro-1H-2,7-naphthyridine]",6.2,16
"Cc1cc(N2Cc3ccc(N4CCNCC4)nc3[C@@H](C)C2)c2cnn(C)c2n1 [Example 66, (8S)-6-(1,6-dimethylpyrazolo[3,4-b]pyridin-4-yl)-8-methyl-2-piperazin-1-yl-7,8-dihydro-5H-1,6-naphthyridine]",9.8,1
"Cc1cc(N2Cc3cnc(OCCN4CCNCC4)cc3[C@@H](C)C2)c2cnn(C)c2n1 [Example 77, (4R)-2-(1,6-dimethylpyrazolo[3,4-b]pyridin-4-yl)-4-methyl-6-(2-piperazin-1-ylethoxy)-3,4-dihydro-1H-2,7-naphthyridine]",6.2,16
"C[C@H]1CN(c2ccnc3c2cnn3C)Cc2ccc(OC[C@@H]3CNCCN3C=O)cc21 [Example 45, (2S)-2-[[(4R)-4-methyl-2-(1-methylpyrazolo[3,4-b]pyridin-4-yl)-3,4-dihydro-1H-isoquinolin-6-yl]oxymethyl]piperazine-1-carbaldehyde]",10.4,10
"CO[C@@H]1CN(c2ccc3c(c2)[C@@H](C)CN(c2cc(C)nc4c2cnn4C)C3)C[C@H]1N [Example 23, (3R,4R)-4-methoxy-1-[(4R)-2-(1,6-dimethylpyrazolo[3,4-b]pyridin-4-yl)-4-methyl-3,4-dihydro-1H-isoquinolin-6-yl]pyrrolidin-3-amine]",7.5,7
"C[C@H]1CN(c2ccnc3c2cnn3C)Cc2ccc(N3C[C@@H]4CCNCC4C3=O)cc21 (relative stereo) [Example 55, cis-2-[(4R)-4-methyl-2-(1-methylpyrazolo[3,4-b]pyridin-4-yl)-3,4-dihydro-1H-isoquinolin-6-yl]-3a,4,5,6,7,7a-hexahydro-1H-pyrrolo[3,4-c]pyridin-3-one]",8.2,6
"Cc1cc(N2Cc3ccc(OC[C@@H]4CNCCN4)cc3[C@@H](C)C2)c2cnn(C)c2n1 [Example 31, (4R)-2-(1,6-dimethylpyrazolo[3,4-b]pyridin-4-yl)-4-methyl-6-[[(2S)-piperazin-2-yl]methoxy]-3,4-dihydro-1H-isoquinoline]",7.9,2
"C[C@H]1CN(c2ccnc3c2cnn3C)Cc2ccc(OC[C@@H]3CNCCN3)cc21 [Example 19, (4R)-4-methyl-2-(1-methylpyrazolo[3,4-b]pyridin-4-yl)-6-[[(2S)-piperazin-2-yl]methoxy]-3,4-dihydro-1H-isoquinoline]",7.7,4
"Cc1cc(N2Cc3ccc(N4CCC(N)CC4)nc3[C@@H](C)C2)c2cnn(C)c2n1 [Example 58, 1-[(8S)-6-(1,6-dimethylpyrazolo[3,4-b]pyridin-4-yl)-8-methyl-7,8-dihydro-5H-1,6-naphthyridin-2-yl]piperidin-4-amine]",9.0,0.4

# Continued by falling IC50 (human TLR8), values first:
Clearance of Human microsome [1] [mL/min/kg],IC50 (human TLR8) [nM],Compound
6.2,10,"C[C@H]1CN(c2ccnc3c2cnn3C)Cc2ccc(N3CC4(CCNCC4)OC3=O)cc21 [Example 26, 3-[(4R)-4-methyl-2-(1-methylpyrazolo[3,4-b]pyridin-4-yl)-3,4-dihydro-1H-isoquinolin-6-yl]-1-oxa-3,8-diazaspiro[4.5]decan-2-one]"
6.2,7,"C[C@H]1CN(c2ccnc3c2cnn3C)Cc2ccc(N3C[C@@H](N)[C@H](O)C3)cc21 [Example 46, trans-4-amino-1-[(4R)-4-methyl-2-(1-methylpyrazolo[3,4-b]pyridin-4-yl)-3,4-dihydro-1H-isoquinolin-6-yl]pyrrolidin-3-ol]"
7.0,6,"C[C@H]1CN(c2ccnc3c2cnn3C)Cc2ccc(N3CCN(C(=O)C4CCCN4)CC3)cc21 (stereo partly drawn) [Example 8, pyrrolidin-2-yl-[4-[(4R)-4-methyl-2-(1-methylpyrazolo[3,4-b]pyridin-4-yl)-3,4-dihydro-1H-isoquinolin-6-yl]piperazin-1-yl]methanone]"
7.0,6,"C[C@H]1CN(c2ccnc3c2cnn3C)Cc2ccc(N3C[C@@]4(CCNC4)CC3=O)cc21 (single isomer, unassigned) [Example 53]"
8.2,4,"C[C@H]1CN(c2ccnc3c2cnn3C)Cc2ccc(N3CC4(CCNCC4)CC3=O)cc21 [Example 16, 2-[(4R)-4-methyl-2-(1-methylpyrazolo[3,4-b]pyridin-4-yl)-3,4-dihydro-1H-isoquinolin-6-yl]-2,8-diazaspiro[4.5]decan-3-one]"
7.0,4,"Cc1cc(N2Cc3ccc(OC4CCNCC4)nc3[C@@H](C)C2)c2cnn(C)c2n1 [Example 64, (8S)-6-(1,6-dimethylpyrazolo[3,4-b]pyridin-4-yl)-8-methyl-2-(4-piperidyloxy)-7,8-dihydro-5H-1,6-naphthyridine]"
6.2,3,"C[C@H]1CN(c2ccnc3c2cnn3C)Cc2ccc(N3CC4(CCNC4)CC3=O)cc21 (stereo partly drawn) [Example 52, 2-[(4R)-4-methyl-2-(1-methylpyrazolo[3,4-b]pyridin-4-yl)-3,4-dihydro-1H-isoquinolin-6-yl]-2,7-diazaspiro[4.4]nonan-3-one]"
6.2,3,"C[C@H]1CN(c2ccnc3c2cnn3C)Cc2ccc(N3CCN[C@@H](CO)C3)cc21 [Example 50, [(2R)-4-[(4R)-4-methyl-2-(1-methylpyrazolo[3,4-b]pyridin-4-yl)-3,4-dihydro-1H-isoquinolin-6-yl]piperazin-2-yl]methanol]"
6.2,2,"C[C@H]1CN(c2ccnc3c2cnn3C)Cc2ccc(N3CCC(O)(CN(C)C)CC3)cc21 [Example 13, 4-[(dimethylamino)methyl]-1-[(4R)-4-methyl-2-(1-methylpyrazolo[3,4-b]pyridin-4-yl)-3,4-dihydro-1H-isoquinolin-6-yl]piperidin-4-ol]"
6.2,1,"Cc1cc(N2Cc3ccc(N4CCC(O)(CN(C)C)CC4)cc3[C@@H](C)C2)c2cnn(C)c2n1 [Example 14, 4-[(dimethylamino)methyl]-1-[(4R)-2-(1,6-dimethylpyrazolo[3,4-b]pyridin-4-yl)-4-methyl-3,4-dihydro-1H-isoquinolin-6-yl]piperidin-4-ol]"
9.4,0.5,"Cc1cc(N2Cc3ccc(N4CCC(C)(N)CC4)nc3[C@@H](C)C2)c2cnn(C)c2n1 [Example 59, 4-methyl-1-[(8S)-6-(1,6-dimethylpyrazolo[3,4-b]pyridin-4-yl)-8-methyl-7,8-dihydro-5H-1,6-naphthyridin-2-yl]piperidin-4-amine]"
